From US8158638B2, “Pyrazolopyrimidine derivative” (Daiichi Sankyo Company, Limited, priority 2006, dated 2012)
Counter-ions that a name gives are not always drawn. Like-named read-outs stand apart in the source and are kept apart here.

Columns and labels:
[1] = test system: human lung cancer cell line NCI-H460; assay: Cell growth inhibition assay (MTT), NCI-H460; format: cell-based; conditions: Homo sapiens, read-out: GI50 value (50% growth inhibitory concentration)
Description: (§1) A cell growth inhibition assay was performed using two types of cells (human breast cancer cell line SK-BR-3 and human lung cancer cell line NCI-H460).
(§2) Cells of each type were suspended in a medium and seeded into a 96-well multi-well plate at 500 cells/150 μl/well. The test compound was dissolved in DMSO, and this was diluted with medium to prepare a sample solution (DMSO concentration: 0.5% or less). On the day following the seeding, 50 μL of DMSO-containing medium to which the test compound was not added (hereinafter called DMSO diluted solution; DMSO concentration: 0.5% or less) or the sample solution was added to the cells. An MTT assay was performed immediately after and 72 hours after adding the sample solution or the DMSO diluted solution to the cells. The MTT assay was performed as follows.
(§3) 5 mg/mL of an MTT (3-(4,5-dimethylthiazol-2-yl)-2,5-diphenyltetrazolium bromide) solution was added at 20 μL per well. Thereafter, the plate was incubated at 37° C. in 5% CO2 for four hours. The plate was centrifuged at 1200 rpm for five minutes, and then the culture supernatant was removed by suction using a dispenser. DMSO was added at 150 μL per well, and the generated formazan was dissolved. The plate was stirred using a plate mixer to uniformly color the respective wells. The absorbance of each well was measured using a plate reader at an OD of 540 nm with a reference of 660 nm.
(§4) T/C (%) for each concentration was determined by the following calculation formula and a dose-response curve was drawn to calculate the 50% growth inhibitory concentration (GI50 value), based on the assumption that the OD value measured immediately after adding the sample solution was S, the OD value measured 72 hours after adding the sample solution was T, and the OD value measured 72 hours after adding the DMSO diluted solution was C. T/C(%)=(T−S)/(C−S)×100

[2] = target: T1, recombinant yeast Hsp90 protein (rHsp90) (Saccharomyces cerevisiae, UniProt P02829); assay: Hsp90 ATPase assay; format: biochemical; conditions: rHsp90 100 μg/mL, ATP 100 μM, 37° C., two hours, BIOMOL GREEN; read-out: IC50 value (concentration for 50% inhibition of ATP activity)
T1 construct: made in house; host or cells: Escherichia coli
Description: An Hsp90 ATPase assay was performed using a recombinant yeast Hsp90 protein (hereinafter called rHsp90). Yeast Hsp90 DNA was cloned from a yeast genomic DNA library according to a conventional method. The cloned yeast Hsp90 DNA was incorporated into a plasmid for expression in Escherichia coli, and the plasmid was expressed in Escherichia coli to obtain rHsp90.
The test compound was dissolved in DMSO to 10 mM. The dissolved solution was diluted with DMSO to eight concentrations ranging in three-fold dilutions from 4 mM. Each diluted solution was further 10-fold diluted with an assay buffer (100 mM Tris, pH 7.4, 20 mM KCl, 6 mM MgCl2) (concentration of each test compound solution: 400 μM, 133 μM, 44.4 μM, 14.8 μM, 4.94 μM, 1.65 μM, 0.549 μM, 0.183 μM; DMSO concentration: 10%).
rHsp90 was dissolved in a TE buffer (20 mM Tris, pH 7.4, 1 mM EDTA) to a concentration of 2.531 mg/mL. The dissolved solution was diluted with assay buffer to 125 μg/mL and dispensed to a 96-well assay plate at 40 μL per well (final concentration: 100 μg/mL).
The test compound solution was dispensed at 5 μL per well, and then the solutions in the respective wells were mixed using a plate mixer. 100 mM ATP (Sigma, Catalog No. A-7699) was diluted with assay buffer to 1 mM and dispensed at 5 μL per well (final concentration: 100 μM). The solutions in the respective wells were mixed using a plate mixer, and then the assay plate was allowed to stand in an incubator set at 37° C. for two hours.
BIOMOL GREEN Reagent (BIOMOL, Catalog No. AK-111) was dispensed at 100 μL per well, and the reaction was terminated. The solutions in the respective wells were mixed by pipetting (three times), and then 34% sodium citrate was dispensed at 10 μL per well. The solutions in the respective wells were mixed by pipetting (three times), and then the assay plate was left to stand at room temperature for 10 minutes. The absorbance at 630 nm of each well was measured with a microplate reader.
The ratio of the absorbance of the test compound-added group to the absorbance of the test compound-free group (T/C value) was determined by the following calculation formula, based on the assumption that the absorbance of the well to which the test compound and rHsp90 were added was A, the absorbance of the well to which only rHsp90 was added was B, and the absorbance of the well to which neither the test compound nor rHsp90 was added was C. T/C=(A−C)/(B−C)
Further, the concentration for 50% inhibition of ATP activity (IC50 value) was calculated using GraphPad Prism 4 (GraphPad Software, Inc.).

[3] = test system: human breast cancer cell line SK-BR-3; assay: Cell growth inhibition assay (MTT), SK-BR-3; format: cell-based; conditions: Homo sapiens, read-out: GI50 value (50% growth inhibitory concentration)
Description: as §1, §2, §3, §4

T1 sequence (P02829 whole entry): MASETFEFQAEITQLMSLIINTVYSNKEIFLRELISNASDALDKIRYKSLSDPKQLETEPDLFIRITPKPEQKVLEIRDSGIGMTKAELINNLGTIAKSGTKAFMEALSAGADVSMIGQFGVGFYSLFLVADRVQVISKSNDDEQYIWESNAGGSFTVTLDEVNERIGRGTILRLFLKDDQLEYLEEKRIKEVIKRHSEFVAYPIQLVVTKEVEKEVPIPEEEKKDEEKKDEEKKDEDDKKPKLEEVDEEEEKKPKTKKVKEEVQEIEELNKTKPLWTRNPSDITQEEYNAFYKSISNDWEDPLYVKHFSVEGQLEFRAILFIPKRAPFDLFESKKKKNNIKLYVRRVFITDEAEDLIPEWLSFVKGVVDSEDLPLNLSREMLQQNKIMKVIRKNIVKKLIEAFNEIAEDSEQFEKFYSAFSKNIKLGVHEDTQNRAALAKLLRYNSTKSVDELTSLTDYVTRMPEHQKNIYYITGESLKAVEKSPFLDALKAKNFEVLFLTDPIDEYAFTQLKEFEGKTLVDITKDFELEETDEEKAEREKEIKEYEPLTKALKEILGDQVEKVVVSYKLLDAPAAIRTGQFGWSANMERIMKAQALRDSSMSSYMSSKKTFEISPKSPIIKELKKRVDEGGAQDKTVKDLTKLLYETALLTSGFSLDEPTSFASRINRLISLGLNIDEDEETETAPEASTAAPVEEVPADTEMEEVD

| Structure (SMILES) | GI50 ([1]; NCI-H460, MTT assay, 72 hours) [nM] | IC50 [2] [nM] | GI50 ([3]; SK-BR-3, MTT assay, 72 hours) [nM] | GI50 ([1]; NCI-H460, 72 h) [nM] | GI50 ([3]; SK-BR-3, 72 h) [nM] |
| --- | --- | --- | --- | --- | --- |
| COc1c(C)cnc(Cn2nc3c4c(nc(N)nc42)SCC3)c1C [Example 2, 2-[(4-Methoxy-3,5-dimethylpyridin-2-yl)methyl]-7,8-dihydro-2H-6-thia-1,2,3,5-tetraazaacenaphthylen-4-amine] | 224 | 1000 | 148 |  |  |
| COc1c(C)cnc(Cn2nc3c4c(nc(N)nc42)SC(C#N)C3)c1C (centres unmarked) [Example 4, 4-Amino-2-[(4-methoxy-3,5-dimethylpyridin-2-yl)methyl]-7,8-dihydro-2H-6-thia-1,2,3,5-tetraazaacenaphthylene-7-carbonitrile] | 69 | 870 | 44 |  |  |
| CNC(=O)C1Cc2nn(Cc3ncc(C)c(OC)c3C)c3nc(N)nc(c23)S1 (centres unmarked) [Example 9, 4-Amino-2-[(4-methoxy-3,5-dimethylpyridin-2-yl)methyl]-N-methyl-7,8-dihydro-2H-6-thia-1,2,3,5-tetraazaacenaphthylene-7-carboxamide] | 159 | 1200 | 137 |  |  |
| COc1c(C)cnc(Cn2nc3c4c(nc(N)nc42)SC(C(=O)NC2CC2)C3)c1C (centres unmarked) [Example 12, 4-Amino-N-cyclopropyl-2-[(4-methoxy-3,5-dimethylpyridin-2-yl)methyl]-7,8-dihydro-2H-6-thia-1,2,3,5-tetraazaacenaphthylene-7-carboxamide] | 460 | 2200 | 150 |  |  |
| COc1c(C)cnc(Cn2nc3c4c(nc(N)nc42)SCC=C3)c1C [Example 36, 2-[(4-Methoxy-3,5-dimethylpyridin-2-yl)methyl]-2,7-dihydro-6-thia-1,2,3,5-tetraazabenzo[cd]azulen-4-amine] | 86 | 970 | 52 |  |  |
| CNC(=O)OC1CSc2nc(N)nc3c2c(nn3Cc2ncc(C)c(OC)c2C)C1 (centres unmarked) [Example 37, 4-Amino-2-[(4-methoxy-3,5-dimethylpyridin-2-yl)methyl]-2,7,8,9-tetrahydro-6-thia-1,2,3,5-tetraazabenzo[cd]azulen-8-yl methylcarbamate] | 411 | 3300 | 307 |  |  |
| COc1c(C)cnc(Cn2nc3c4c(nc(N)nc42)SCC(NC(C)=O)C3)c1C (centres unmarked) [Example 43, N-{4-Amino-2-[(4-methoxy-3,5-dimethylpyridin-2-yl)methyl]-2,7,8,9-tetrahydro-6-thia-1,2,3,5-tetraazabenzo[cd]azulen-8-yl}acetamide] | 253 | 1400 | 91 |  |  |
| COc1c(C)cnc(Cn2nc3c4c(nc(N)nc42)SCC(NC2CC2)C3)c1C (centres unmarked) [Example 51, N^8-Cyclopropyl-2-[(4-methoxy-3,5-dimethylpyridin-2-yl)methyl]-2,7,8,9-tetrahydro-6-thia-1,2,3,5-tetraazabenzo[cd]azulene-4,8-diamine hydrochloride] | 150 | 2400 | 58 |  |  |
| COc1c(C)cnc(Cn2nc3c4c(nc(N)nc42)SCC(N2CCC[C@H]2C(N)=O)C3)c1C (stereo partly drawn) [Example 67, 1-{4-Amino-2-[(4-methoxy-3,5-dimethylpyridin-2-yl)methyl]-2,7,8,9-tetrahydro-6-thia-1,2,3,5-tetraazabenzo[cd]azulen-8-yl}-L-prolinamide] | 300 | 1200 | 130 |  |  |
| COc1c(C)cnc(Cn2nc3c4c(nc(N)nc42)SCC(N(C)C(C)=O)C3)c1C (centres unmarked) [Example 99, N-{4-Amino-2-[(4-methoxy-3,5-dimethylpyridin-2-yl)methyl]-2,7,8,9-tetrahydro-6-thia-1,2,3,5-tetraazabenzo[cd]azulen-8-yl}-N-methylacetamide] | 650 | 820 | 320 |  |  |
| COc1c(C)cnc(Cn2nc3c4c(nc(N)nc42)SCC(CCO)=C3)c1C [Example 111, 2-{4-Amino-2-[(4-methoxy-3,5-dimethylpyridin-2-yl)methyl]-2,7-dihydro-6-thia-1,2,3,5-tetraazabenzo[cd]azulen-8-yl}ethanol] |  | 810 |  | 94 | 49 |
| COc1c(C)cnc(Cn2nc3c4c(nc(N)nc42)SCC(CC(N)=O)=C3)c1C [Example 115, 2-{4-Amino-2-[(4-methoxy-3,5-dimethylpyridin-2-yl)methyl]-2,7-dihydro-6-thia-1,2,3,5-tetraazabenzo[cd]azulen-8-yl}acetamide] | 194 | 740 | 77 |  |  |
| CNC(=O)CC1=Cc2nn(Cc3ncc(C)c(OC)c3C)c3nc(N)nc(c23)SC1 [Example 116, 2-{4-Amino-2-[(4-methoxy-3,5-dimethylpyridin-2-yl)methyl]-2,7-dihydro-6-thia-1,2,3,5-tetraazabenzo[cd]azulen-8-yl}-N-methylacetamide] | 89 | 1100 | 37 |  |  |
| CCNC(=O)CC1=Cc2nn(Cc3ncc(C)c(OC)c3C)c3nc(N)nc(c23)SC1 [Example 118, 2-{4-Amino-2-[(4-methoxy-3,5-dimethylpyridin-2-yl)methyl]-2,7-dihydro-6-thia-1,2,3,5-tetraazabenzo[cd]azulen-8-yl}-N-ethylacetamide] |  | 610 |  | 510 | 33 |
| Nc1nc2c3c(nn(Cc4cc5c(cn4)OCCO5)c3n1)CCS2 [Example 172, 2-(2,3-Dihydro[1,4]dioxino[2,3-c]pyridin-7-ylmethyl)-7,8-dihydro-2H-6-thia-1,2,3,5-tetraazaacenaphthylen-4-amine] |  | 1500 |  |  |  |
| Nc1nc2c3c(nn(Cc4nc5cccc(Cl)c5s4)c3n1)CCS2 [Example 174, 2-[(7-Chloro-1,3-benzothiazol-2-yl)methyl]-7,8-dihydro-2H-6-thia-1,2,3,5-tetraazaacenaphthylen-4-amine] |  | 3400 |  |  |  |
| Cc1cnc(Cn2nc3c4c(nc(N)nc42)SCC3)c(C)c1Cl [Example 175, 2-[(4-Chloro-3,5-dimethylpyridin-2-yl)methyl]-7,8-dihydro-2H-6-thia-1,2,3,5-tetraazaacenaphthylen-4-amine] |  | 1200 |  |  |  |
| CCc1c(C)cnc(Cn2nc3c4c(nc(N)nc42)SCC3)c1C [Example 176, 2-[(4-Ethyl-3,5-dimethylpyridin-2-yl)methyl]-7,8-dihydro-2H-6-thia-1,2,3,5-tetraazaacenaphthylen-4-amine] |  | 890 |  |  |  |
| COc1c(C)cnc(Cn2nc3c4c(nc(N)nc42)SCC(CO)=C3)c1C [Example 214, {4-Amino-2-[(4-methoxy-3,5-dimethylpyridin-2-yl)methyl]-2,7-dihydro-6-thia-1,2,3,5-tetraazabenzo[cd]azulen-8-yl}methanol] |  | 760 |  |  |  |
